Legend:
Assay type in all cases: cell-based, human
[1] = test system: A549 cells; assay: Cell-Titer Glo cell viability / growth inhibition; settings: A549 NSCLC cell line
Experimental: (§1) The NSCLC lines with IGF-1R, H292, H358, H322, H441, A549, Calu6, H460, H1703 and SW1573 were cultured in the appropriate ATCC recommended supplemented media. Cell extracts were prepared by detergent lysis ((50 mM Tris-HCl, pH8, 150 mM NaCl, 1% NP-40, 0.5% NaDeoxycholate, 0.1% SDS) containing protease and phosphatase inhibitors. The soluble protein concentration was determined by micro-BSA assay (Pierce, Rockford Ill.).
(§2) IGF-1R inhibitor Compound 66 (i.e. 3-(3-Azetidin-1-ylmethyl-cyclobutyl)-1-(2-phenyl-quinolin-7-yl)-imidazo[1,5-a]pyrazin-8-ylamine; see structure below) stock concentration was 10 mM in 100% DMSO (dimethyl sulfoxide). Serial dilutions (1:3 or 1:4) were used to establish the 50% inhibitory dose of IGF-1R inhibitor. Before dosing, inhibitor was diluted in 100% DMSO, and then added to the cells at desired final concentrations in duplicates. The final DMSO concentration was between 0.3-0.5%. Compound 66 was synthesized by the methods described in published International patent application number WO 2005/097800 A1.
(§3) For measuring cell viability, Cell-Titer Glo assay was used, which is available as a kit from Promega. The basis of the assay is a luminescent quantitation of ATP present in a cell culture plate well. In essence, the greater the number of viable cells in the well, the greater the level of ATP present. The assay utilizes a substrate that binds ATP to produce a luminescent signal, which can be read on a luminometer. Unless otherwise noted, the manufacturer's instructions were followed exactly. Briefly, on Day 1, cells were plated in 120 μl of 10% serum-containing growth media at a density of 4000 cells/well in a white polystyrene 96 well assay plate. On day 2, cells were treated with 15 μl of 10× concentration of the IGF-1R inhibitor (e.g. Compound 66, PQIP) or DMSO alone for a final well volume of […]. After 72 h incubation with the inhibitor, the cells were assayed. Results were calculated as a fraction of the DMSO controlled cells.

[2] = test system: H441 cells; assay: Cell-Titer Glo cell viability / growth inhibition; settings: H441 NSCLC cell line
Experimental: as §1, §2, §3

[3] = test system: H460 cells; assay: Cell-Titer Glo cell viability / growth inhibition; settings: H460 NSCLC cell line
Experimental: as §1, §2, §3

[4] = test system: H358 cells; assay: Cell-Titer Glo cell viability / growth inhibition; settings: H358 NSCLC cell line
Experimental: as §1, §2, §3

[5] = test system: SW1573 cells; assay: Cell-Titer Glo cell viability / growth inhibition; settings: SW1573 NSCLC cell line
Experimental: as §1, §2, §3

[6] = test system: H292 cells; assay: Cell-Titer Glo cell viability / growth inhibition; settings: H292 NSCLC cell line
Experimental: as §1, §2, §3

[7] = test system: panel comprised of 28 tumor cell lines (colorectal, breast, pancreatic, NSCLC, head and neck); assay: Cell-Titer Glo growth inhibition, tumor cell line panel
Experimental: The effect of 3 μM PQIP on cell growth for a panel of 26 tumor cell lines is shown. The EMT status for the cell lines is indicated, and those tumor cell lines which harbor a known activating mutation in PI3K are marked by a *. EMT status is defined here according to the transcriptional activity of CDH1, the gene encoding E-Cadherin, indicated by either the methylation status of the CDH1 promoter or the presence of CDH1 gene transcriptional repressor proteins (e.g. Snail, Zeb1). Methylation or high levels of transcriptional repressors is associated with silencing of CDH1, and is thus an indicator of a mesenchymal cell. Cell growth was measured using Cell Titer Glo (Promega), and measurements were taken 72 hours after dosing. Data are expressed as % of maximal tumor growth inhibition and are representative of three or more independent experiments. […]
For measuring cell viability, Cell-Titer Glo assay was used, which is available as a kit from Promega. The basis of the assay is a luminescent quantitation of ATP present in a cell culture plate well. […] The assay utilizes a substrate that binds ATP to produce a luminescent signal, which can be read on a luminometer. […] Results were calculated as a fraction of the DMSO controlled cells.

SMILES	sensitivity to Compound 66-mediated growth inhibition [1]	sensitivity to Compound 66-mediated growth inhibition [2]	sensitivity to Compound 66-mediated growth inhibition [3]	sensitivity to Compound 66-mediated growth inhibition [4]	sensitivity to Compound 66-mediated growth inhibition [5]	sensitivity to Compound 66-mediated growth inhibition [6]	inhibition at 3 µM ([7]; Homo sapiens, 3 μM PQIP, any mesenchymal tumor cell line in the panel) [%]	dose dependence of growth inhibition ([7]; varying concentrations of PQIP, all cell lines (data not shown))
Nc1nccn2c1c(-c1ccc3ccc(-c4ccccc4)nc3c1)nc2[C@H]1C[C@@H](CN2CCC2)C1 [Compound 66, 3-(3-Azetidin-1-ylmethyl-cyclobutyl)-1-(2-phenyl-quinolin-7-yl)-imidazo[1,5-a]pyrazin-8-ylamine]	intermediate sensitivity	sensitive	relatively insensitive	sensitive	relatively insensitive	sensitive		
CN1CCN([C@H]2C[C@@H](c3nc(-c4ccc5ccc(-c6ccccc6)nc5c4)c4c(N)nccn43)C2)CC1 [PQIP, cis-3-[3-(4-Methyl-piperazin-1-yl)-cyclobutyl]1-(2-phenyl-quinolin-7-yl)-imidazo[1,5-a]pyrazin-8-ylamine]							≤ 50	dose-dependent

From US8048621B2, “Biological markers predictive of anti-cancer response to insulin-like growth factor-1 receptor kinase inhibitors” (OSI Pharmaceuticals, LLC, priority 2007, dated 2011)
